Experimental data: patent US20110105611A1, “USE OF MASLINIC ACID FOR THE TREATMENT OF P[…] THEIR SYMPTOMS THROUGH THE INHIBITION OF COX-2” (Biomaslinic S.L., priority 2008, published 2011)
Entries after “also recorded” stand apart in the source; their conditions may differ. Read-outs that look alike come from different tables or passages of the source.

Legend:
[1] = system: PGE2 production in human monocytes; assay: PGE2 production in LPS-stimulated human monocytes of peripheral blood (EIA); assay type: cell-based; details: LPS-stimulated human monocytes from peripheral blood
From the text: (§1) 2. Cell Cultures • Isolation and culture of primary monocytes of peripheral blood. Peripheral blood mononuclear cells (PBMC) coming from healthy adults volunteer donors were isolated by venous blood centrifugation through density gradient with Ficoll-Hypaque. The monocytes were separated through adherence to plastic and later cultured in 24-well plates at a density of 50,000 cells/ml for the enzyme immunoassay (EIA) experiments and in 6-well plates for the immunoblot assays. • Culture of human primary chondrocytes. Chondrocytes were bought from Promocell (Heidelberg, Germany) and cultured in medium conditioned for this type of cells. The cells were cultured in 24-well plates for the determination of PGE2 and IL-6. • Culture of rat primary astrocytes. The astrocyte primary cultures were prepared from neonatal rat brains (1 day old). […] The cultures were expanded in 6-well plates and the production of PGE2 measured in cells after the 3 or 4 pass. • Culture of cell lines. […]
Chondrocyte, monocyte and astrocyte cultures were stimulated with the corresponding activators (IL-1, LPS or PMA plus lonomicine) in presence or absence of several concentrations of maslinic acid during the indicated times. […] PGE2 was determined using the EIA system of Assay Designs (catalogue number 901-001) following the manufacturer instructions. […]

COX-2 [2] = assay: COX-2 protein expression in LPS-stimulated monocytes (western blot); assay type: cell-based, human; details: growing doses of MA, 12 hours, listed as MA
From the text: as §1, with “cells.” for “cells. The cells were cultured in 24-well plates for the determination of PGE2 and IL-6. • Culture of rat primary astrocytes. The astrocyte primary cultures were prepared from neonatal rat brains (1 day old).”
The cells (primary monocytes or SK—N—SH) were stimulated as indicated in each case and lysis solution in 50 μl (20 mM Hepes pH 8.0, 10 mM KCl, 0.15 mM EGTA, 0.15 mM EDTA, 0.5 mM Na3VO4, 5 mM NaF, 1 mM DTT, leupeptin 1 μg/ml, pepstatin 0.5 μg/ml, aprotinin 0.5 μg/ml, 1 mM PMSF y 0.5% NP-40). The protein concentration was determined through the Bradford reagent (Bio-Rad, Richmond, Calif., USA) and 30 μg of proteins were boiled in Laemmli solution and submitted to electrophoresis in gel of SDS/polyacrylamide at 10%. […]

COX-2 [3] = assay: COX-2 enzymatic activity in LPS-induced monocytes (conversion of arachidonic acid to PGE2); assay type: cell-based, human; details: monocytes LPS 24 hours, MA 15 minutes, arachidonic acid 15 μM 15 minutes
Protocol: In order to determine COX-2 activity, the cells were LPS-stimulated first (10 ng/ml) for 24 hours to induce the cellular expression of the COX-2 protein. After that time the cultures were washed and a new free of serum culture medium, maslinic acid (different concentrations) and arachidonic acid (AA) were added for 15 minutes. During this time, the enzymatic activity of COX-2 was measured by its capacity to produce PGE2 from the AA included in the culture.
Vis-à-vis the possibility of MA acting as inhibitor of COX-2 activity, we induced the expression of COX-2 through the treatment of monocytes with LPS for 24 hours. After this time, the cells were washed three times with a medium without serum and incubated for 15 minutes with growing doses of MA. After this time, arachidonic acid was added to the cultures (15 μM) for other 15 minutes and the conversion to PGE2 was measured by EIA.

[4] = system: promoter of the COX-2 gene; assay: COX-2 promoter luciferase assay in transfected SK-N-SH cells; assay type: cell-based, human; details: PMA plus ionomycin 6 hours
From the text: as §1
(§2) SK—N—SH cells were transfected with the plasmids COX-2-Luc and IL-6-Luc using the JetPei reagent (Polyplus transfection, France) according to the manufacturer instructions. […] The luciferase activity in the protein extract was determined through the use of the luminometer Autolumat LB9510 (Berthold) following the system instructions of Luciferase assay from Promega (Madison, Wis., USA). […]

[5] = system: PGE2 production in human chondrocytes; assay: PGE2 release in primary human chondrocytes stimulated with IL-1; assay type: cell-based; details: IL-1 10 U/ml; for release of PGE2 induced by IL-1, higher doses: MA 25 and 50 μg/ml
From the text: (§3) 2. Cell Cultures • Isolation and culture of primary monocytes of peripheral blood. Peripheral blood mononuclear cells (PBMC) coming from healthy adults volunteer donors were isolated by venous blood centrifugation through density gradient with Ficoll-Hypaque. The monocytes were separated through adherence to plastic and later cultured in 24-well plates at a density of 50,000 cells/ml for the enzyme immunoassay (EIA) experiments and in 6-well plates for the immunoblot assays. • Culture of human primary chondrocytes. Chondrocytes were bought from Promocell (Heidelberg, Germany) and cultured in medium conditioned for this type of cells. The cells were cultured in 24-well plates for the determination of PGE2 and IL-6. • Culture of rat primary astrocytes. The astrocyte primary cultures were prepared from neonatal rat brains (1 day old). The upper part of the brain was opened and the meninges carefully separated to avoid contamination of the cultures with fibroblasts. The cerebral cortex was isolated and a cellular suspension was obtained, which was cultured in DMEM conditioned for the astrocyte culture. The cultures were expanded in 6-well plates and the production of PGE2 measured in cells after the 3 or 4 pass. • Culture of cell lines. SK—N—SH (American Tissue Culture collection, HTB 11) is a cell line derived from a human neuroblastoma and an exponential growth in DMEM supplemented by 2 mmol/l L-glutamine, antibiotics and 10% FCS. The cells were cultured at 37° C. and in an atmosphere at 5% CO2.
(§4) Chondrocyte, monocyte and astrocyte cultures were stimulated with the corresponding activators (IL-1, LPS or PMA plus lonomicine) in presence or absence of several concentrations of maslinic acid during the indicated times. […] PGE2 was determined using the EIA system of Assay Designs (catalogue number 901-001) following the manufacturer instructions.
(§5) In order to determine if the effect of MA on the production of PGE2 also occurred in another cell type involved in inflammatory phenomena the anti-inflammatory activity of maslinic acid on primary human chondrocytes was determined. […]

[6] = system: IL-6 production in human chondrocytes; assay: IL-6 production in primary human chondrocytes stimulated with IL-1; assay type: cell-based; details: IL-1 10 U/ml, concentration dependent
From the text: as §1, with “old). The upper part of the brain was opened and the meninges carefully separated to avoid contamination of the cultures with fibroblasts.” for “old).”
as §5

[7] = system: IL-6 production in human monocytes; assay: IL-6 production in LPS-stimulated human monocytes (EIA); assay type: cell-based
From the text: as §1
(§6) Monocyte cultures were stimulated in the same way as for the production of PGE2 (LPS stimulation for 24 hours) and the amount of 8-iso-prostaglandine F2α (isoprostanes) or IL-6 released by the cells was determined respectively through the systems EIA from Cayman (USA) (catalogue number 516351) or from Pelikine (catalogue number RDI-M1916clb) following the manufacturer instructions.

promoter of IL-6 = assay: IL-6 promoter luciferase assay in transfected SK-N-SH cells; assay type: cell-based, human; details: listed as MA
From the text: as §1, §2

[8] = system: 8-iso-PGF2α production in human monocytes; assay: Isoprostane (8-iso-PGF2α) release in LPS-stimulated human monocytes (EIA); assay type: cell-based; details: for release of 8-iso-PGF2α (isoprostanes): human monocytes of peripheral blood after LPS stimulation
From the text: as §3, §6
Isoprostanes such as endoperoxide 8-iso-prostaglandin F2α (8-iso-PGF2α) are metabolites of the oxidation of arachidonic acid and nowadays it is considered one of the best markers of oxidative stress. […]

[9] = system: PGE2 production in primary astrocytes; assay: PGE2 production in primary rat astrocytes; assay type: cell-based
From the text: as §1, §4

[10] = system: PGE2 production in SK-N-SH cells; assay: PGE2 production in SK-N-SH neuroblastoma cell line; assay type: cell-based, human
From the text: as §1, §4

T lymphocytes = assay: Activation and proliferation of T lymphocytes stimulated via TCR; assay type: cell-based
[11] = system: TNFα production in primary monocytes; assay: TNFα production in primary monocytes; assay type: cell-based
tumor cell lines = assay: Apoptosis induction in tumor cell lines (concentration comparison); assay type: cell-based
[12] = system: LPS-stimulated murine peritoneal macrophages; details: cited from earlier work
[13] = system: mononuclear cells of human peripheral blood; details: cited from earlier work

For CC1(C)CC[C@]2(C(=O)O)CC[C@]3(C)C(=CC[C@@H]4[C@@]5(C)C[C@@H](O)[C@H](O)C(C)(C)[C@@H]5CC[C@]43C)[C@@H]2C1 [maslinic acid, 2-alpha,3-beta-dihydroxyolean-12-en-28-oic acid], the “production of PGE2” value [1] was “inhibits the production; also recorded: inhibited the production of PGE2”, the “production of PGE2” value ([1]; listed as Maslinic acid) was “inhibits the production of PGE2” and the “expression of COX-2 induced by LPS (western blot)” value (COX-2 [2]) was “did not inhibit the expression of COX-2”. For the same molecule, the “enzymatic activity of COX-2 (conversion of arachidonic acid to PGE2, EIA)” value (COX-2 [3]) was “inhibits the enzymatic activity of COX-2”, the “enzymatic activity of COX-2 (conversion of arachidonic acid to PGE2, EIA)” value (COX-2 [3]; listed as MA) was “inhibited in a dose-depending manner the enzymatic activity of COX-2” and the “transcriptional activity of the COX-2 gene (luciferase)” value [4] was “does not inhibit the transcriptional activation of the gene promoter of COX-2”. For the same molecule, the “transcriptional activity of the COX-2 gene (luciferase)” value ([4]; listed as MA) was “did not affect the transcriptional activity of the COX-2 gene”, the “production of PGE2 after stimulation with IL-1, low doses” value ([5]; MA 0.1 and 1 μg/ml) was “an increase in the production of PGE2” and the “release of PGE2 induced by IL-1, higher doses” value [5] was “at high doses inhibits the production of PGE2”. The “release of PGE2 induced by IL-1, higher doses” value ([5]; listed as MA) was “a complete inhibition of the release of this prostaglandin”, the “production of IL-6” value [6] was “inhibits the production of IL-6” and the “production of IL-6” value ([6]; listed as MA) was “completely inhibited”. For the same molecule, the “IL-6 induced by LPS” value [7] was “inhibits the production”, the “IL-6 induced by LPS” value ([7]; listed as Maslinic acid) was “inhibits the production of IL-6” and the “transcriptional activity of the IL-6 promoter (luciferase), IL-1 stimulation” value (promoter of IL-6; IL-1, 4 hours) was “is not produced by a transcriptional inhibition of the gene of IL-6; also recorded: does not inhibit the transcriptional activity of the IL-1 promoter”. The “transcriptional activity of the IL-6 promoter (luciferase), PMA plus ionomycin stimulation” value (promoter of IL-6; PMA plus ionomycin, 4 hours) was “is not produced by a transcriptional inhibition of the gene of IL-6; also recorded: does not inhibit the transcriptional activity of the IL-1 promoter”, the “release of 8-iso-PGF2α (isoprostanes)” value [8] was “inhibits the production of isoprostanes” and the “release of 8-iso-PGF2α (isoprostanes)” value ([8]; listed as MA) was “inhibits in a concentration depending way the release of 8-iso-PGF2α”. For the same molecule, the “inhibiting power on the production of isoprostanes compared with reference antioxidants” value ([8]; primary monocytes, listed as MA) was “higher than that of tocopherol and trolox; also recorded: comparable to that of resveratrol”, the “production of PGE2 in primary astrocytes” value [9] was “Dual Effect” and the “production of PGE2 in SK-N-SH cell line (neuroblastoma)” value ([10]; listed as Maslinic Acid) was “Dual Effect”. The “production of PGE2 in SK-N-SH cell line (neuroblastoma)” value ([10]; listed as Maslinic acid) was “at high doses inhibits the production of PGE2”, the “activation and proliferation of T lymphocytes” value (T lymphocytes) was “inhibits the activation and proliferation of T lymphocytes” and the “production of TNFα” value [11] was “inhibits the production”. For the same molecule, the “concentrations inhibiting innate and acquired immune responses versus those required to induce apoptosis in tumor cell lines” value (tumor cell lines) was “noticeably lower”, the “production of NO” value [12] was “inhibits” and the “production of hydrogen peroxide (ROS)” value [12] was “inhibits”. The “release of IL-6” value [12] was “inhibits”, the “release of TNFα” value [12] was “inhibits” and the “inhibition of IL-6, TNFα, NO and hydrogen peroxide” value [13] was “do not find”.
